The test system of test [1] is TLR7 induced IL-6 secretion in human mononuclear cells (PBMC's). The test is described as follows: TLR7 induced IL-6 in human PBMC's. It counts as cell-based. The conditions noted are these: TLR7 specific ligand 2 uM overnight, IL-6 AlphaLISA. The protocol: TLR7 Induced IL-6 in Human PBMC's
Human PBMC assay was used as one of the functional assaya to monitor the activity of IRAK1 and IRAK4 small molecule inhibitors on TLR7 induced IL-6 secretion in human mononuclear cells (PBMC's). Human PBMCs were prepared from buffy coats (whole blood enriched with leukocytes and platelets) obtained from healthy volunteers used either fresh or frozen are plated in assay media (RPMI+2% P/S/L-glu+10% HI-FBS) and pre-treated with compounds in DMSO/media (range of concentrations from 25 uM to 0.4 nM) or controls (0.25% DMSO) for 30 minutes at 37° C. in assay media. Following pre-treatment with IRAK1 and IRAK4 inhibitors, PBMC's were stimulated with TLR7 specific ligand (2 uM) overnight (16-18 hrs) at 37° C. After incubation supernatant was transferred to 384 well PE AlphaPlate-384 (6005350) and IL-6 is quantified using Perkin Elmer IL-6 Alpha LISA kit (AL223C). Plates were read on an Envision® plate reader with Alpha Technology®.
On the technique in general: In Alpha technology, singlet oxygen from a donor bead excites a nearby acceptor bead.

Test [2] addresses T1, IRAK4 (Homo sapiens, UniProt Q9NWZ3).
T1 construct: His-TEV-IRAK4 (1-460); His (N); TEV cleavage site (N)
T1 sequence (Q9NWZ3 1-460): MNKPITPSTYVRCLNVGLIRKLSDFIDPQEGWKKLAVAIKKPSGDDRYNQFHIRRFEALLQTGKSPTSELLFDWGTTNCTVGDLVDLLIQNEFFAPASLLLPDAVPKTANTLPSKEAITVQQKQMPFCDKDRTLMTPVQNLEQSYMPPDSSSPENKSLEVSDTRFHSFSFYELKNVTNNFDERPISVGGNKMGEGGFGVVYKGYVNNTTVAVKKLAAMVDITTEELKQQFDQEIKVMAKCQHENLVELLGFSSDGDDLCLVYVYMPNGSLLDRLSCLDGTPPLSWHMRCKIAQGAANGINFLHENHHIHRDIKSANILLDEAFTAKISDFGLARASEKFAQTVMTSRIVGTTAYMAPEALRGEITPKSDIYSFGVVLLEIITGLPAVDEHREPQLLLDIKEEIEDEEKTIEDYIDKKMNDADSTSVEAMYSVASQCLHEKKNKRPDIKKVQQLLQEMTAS
In words: IRAK4 enzymatic assay (ADP-Glo luminescence). It counts as biochemical. Conditions: human recombinant His-TEV-IRAK4 (1-460), STK1-biotin peptide substrate. The method, then: IRAK4 is a human purified recombinant enzyme (His-TEV-IRAK4 (1-460)).
In this assay, IRAK4 hydrolyses ATP, autophosphorylates and phosphorylates a Serine/Threonine generic peptidic substrate (STK: 61ST1BLC from CisBio International). Measurement of IRAK-4 inhibition is performed in 384-well format based on a luminescence assay (ADP-Glo™ Kinase Assay from Promega). Purified human recombinant IRAK4 ([…]) and serial diluted compounds in DMSO (range of concentration from 10 μM to 0.5 nM) or controls (1% DMSO) are incubated for 15 minutes at RT in assay buffer containing 50 mM Hepes pH 7.0, Fatty acid-free BSA 0.1%, Dithiothreitol (DTT) 2 mM, MgCl2 10 mM, EGTA 0.5 mM, Triton X-100 0.01%, MnCl2 5 mM. The kinase reaction is then initiated by the addition of ATP ([…]) and the peptidic substrate STK1-biotin peptide (300 nM). After 2 hours of incubation at RT, the reaction is stopped and the unconsumed ATP depleted by the addition of ADP-Glo™ Reagent according to supplier instructions. After 40 minutes of incubation at RT, the Kinase Detection Reagent is then added to the assay plate according to supplier instructions. After 20 minutes of incubation at RT, the luminescence signal is measured with a plate-reading luminometer (PerkinElmer Envision or equivalent reader).

The target of test [3] is T2, IRAK1 (Homo sapiens, UniProt P51617).
T2 construct: His-TEV-IRAK1 (194-712); His (N); TEV cleavage site (N)
The test is described as follows: IRAK1 enzymatic assay (ADP-Glo luminescence). It counts as biochemical. The conditions noted are these: human recombinant His-TEV-IRAK1 (194-712), ATP 1 μM; read-out: IRAK 1 IC50. The method, then: IRAK1 is a human purified recombinant enzyme (His-TEV-IRAK1 (194-712))
In this assay, IRAK1 hydrolyses ATP and autophosphorylates. Measurement of IRAK-1 inhibition is performed in 384-well format based on luminescence assay (ADP-Glo™ Kinase Assay from Promega). Purified human recombinant IRAK1 ([…]) and serial diluted compounds in DMSO (range of concentration from 10 μM to 0.5 nM) or controls (1% DMSO) are incubated for 15 minutes at RT in assay buffer containing 50 mM Hepes pH 7.0, Fatty acid-free BSA 0.1%, Dithiothreitol (DTT) 2 mM, MgCl2 10 mM, EGTA 0.5 mM, Triton X-100 0.01%. The kinase reaction is then initiated by the addition of ATP at a concentration of 1 μM. After 2 hours of incubation at RT, the reaction is stopped and the unconsumed ATP depleted by the addition of ADP-Glo™ Reagent according to supplier instructions. After 40 minutes of incubation at RT, the Kinase Detection Reagent is then added to the assay plate according to supplier instructions. After 20 minutes of incubation at RT, the luminescence signal is measured with a luminometer (PerkinElmer Envision or equivalent reader).
(In general: In ADP-Glo the light output rises with the ADP produced.)

T2 sequence (P51617 194-712): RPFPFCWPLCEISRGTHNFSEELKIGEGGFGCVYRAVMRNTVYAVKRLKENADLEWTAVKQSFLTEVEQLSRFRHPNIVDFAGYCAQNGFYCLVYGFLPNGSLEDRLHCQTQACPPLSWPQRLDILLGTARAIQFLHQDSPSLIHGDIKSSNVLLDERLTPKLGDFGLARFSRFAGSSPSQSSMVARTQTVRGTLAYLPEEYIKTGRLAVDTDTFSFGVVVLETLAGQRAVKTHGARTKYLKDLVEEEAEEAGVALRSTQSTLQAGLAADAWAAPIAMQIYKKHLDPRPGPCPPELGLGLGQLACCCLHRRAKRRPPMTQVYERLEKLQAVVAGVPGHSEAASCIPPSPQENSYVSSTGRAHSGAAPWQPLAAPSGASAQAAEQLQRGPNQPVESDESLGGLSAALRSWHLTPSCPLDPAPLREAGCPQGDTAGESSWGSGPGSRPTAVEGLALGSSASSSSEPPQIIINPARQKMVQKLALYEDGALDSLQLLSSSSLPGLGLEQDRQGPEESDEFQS

As to `CN1CCC(C)(c2ccc3c(c2)nc(NC(=O)c2cccc(C(F)(F)F)c2)n3CCCO)C1=O` (single isomer, unassigned) [Compound 29b], the IC50 (as a rule, the point on the concentration scale where inhibition reaches its midpoint) is 100 to 1000 nM in test [1], at most 100 nM in test [2] and 100 to 1000 nM in test [3].

`CN1C[C@H](c2ccc3c(c2)nc(NC(=O)c2cccc(C(F)(F)F)c2)n3CCCO)C(C)(C)C1=O` [Compound 25b, N-[1-(3-hydroxypropyl)-5-[(3R)-1,4,4-trimethyl-5-oxopyrrolidin-3-yl]-1H-1,3-benzodiazol-2-yl]-3-(trifluoromethyl)benzamide]: the IC50 in test [1] (Homo sapiens, PBMC) was 100 to 1000 nM; in test [2], at most 100 nM; in test [3], 100 to 1000 nM.

Take `CN1CCCC(c2ccc3c(c2)[nH]/c(=N\C(=O)c2cccc(C(F)(F)F)c2)n3CCC(O)CO)C1=O` (single isomer, unassigned) [Compound 22d]: the figures for the IC50 in test [1], in test [2] and in test [3] were 100 to 1000 nM, at most 100 nM and 100 to 1000 nM, respectively.

On to `CN1C(=O)CCC1(C)c1ccc2c(c1)nc(NC(=O)c1cccc(C(F)F)c1)n2CCCO` (single isomer, unassigned) [Compound 31a], for which the IC50 is 1000 to 10000 nM in test [1] (Homo sapiens, PBMC); at most 100 nM in test [2]; 100 to 1000 nM in test [3].

As for `CN1CCC[C@@H](c2ccc3c(c2)[nH]/c(=N\C(=O)c2cccc(C(F)F)c2)n3C[C@](C)(F)CO)C1=O` (single isomer, unassigned) [Compound 3b], the IC50 in test [1] (Homo sapiens, PBMC) is 100 to 1000 nM; in test [2], at most 100 nM; in test [3], 1000 to 10000 nM.

`CN1CCC[C@H](c2ccc3c(c2)[nH]/c(=N\C(=O)c2cccc(C(F)(F)F)c2)n3CCCO)C1=O` [Compound 1b, (R,E)-N-(1-(3-hydroxypropyl)-5-(1-methyl-2-oxopiperidin-3-yl)-1H-benzo[d]imidazol-2(3H)-ylidene)-3-(trifluoromethyl)benzamide]: the half-maximal inhibitory concentration (IC50) is 1000 to 10000 nM in test [1] (Homo sapiens, PBMC); at most 100 nM in test [2]; 100 to 1000 nM in test [3].

For the compound `C=CCn1/c(=N/C(=O)c2cccc(C(F)(F)F)c2)[nH]c2cc(C3CCN(C)C3=O)ccc21` (stereo not drawn) [Compound 19, N-[1-Allyl-5-(1-methyl-2-oxo-pyrrolidin-3-yl)-1,3-dihydro-benzoimidazol-(2E)-ylidene]-3-trifluoromethyl-benzamide], the IC50 was 100 to 1000 nM in test [1] (Homo sapiens, PBMC); at most 100 nM in test [2]; 100 to 1000 nM in test [3].

For the compound `CN1CC(c2ccc3c(c2)[nH]/c(=N\C(=O)c2cccc(C(F)(F)F)c2)n3CCCO)CC1=O` (stereo not drawn) [Compound 10, (E)-N-(1-(3-hydroxypropyl)-5-(1-methyl-5-oxopyrrolidin-3-yl)-1H-benzo[d]imidazol-2(3H)-ylidene)-3-(trifluoromethyl)benzamide], the IC50 was 100 to 1000 nM in test [1] (Homo sapiens, PBMC); at most 100 nM in test [2]; 100 to 1000 nM in test [3].

In the case of `CC(=O)N1C2CCC1CC(c1ccc3c(c1)[nH]/c(=N\C(=O)c1cccc(C(F)(F)F)c1)n3CCCO)C2` (stereo not drawn) [Compound 15, (E)-N-(5-(8-acetyl-8-azabicyclo[3.2.1]octan-3-yl)-1-(3-hydroxypropyl)-1H-benzo[d]imidazol-2(3H)-ylidene)-3-(trifluoromethyl)benzamide], the IC50 is at most 100 nM in test [1] (Homo sapiens, PBMC); at most 100 nM in test [2]; at most 100 nM in test [3].

`CN1CCCC(c2ccc3c(c2)[nH]/c(=N\C(=O)c2cccc(C(F)(F)F)c2)n3CCC(O)CO)C1=O` (single isomer, unassigned) [Compound 22a]: the IC50 is at most 100 nM in test [1], at most 100 nM in test [2] and 100 to 1000 nM in test [3].

Consider `CN1CCC(c2ccc3c(c2)[nH]/c(=N\C(=O)c2cccc(C(F)(F)F)c2)n3CC(O)CO)C1=O` (single isomer, unassigned) [Compound 20b], for which the IC50 in test [1] was 1000 to 10000 nM; in test [2] it was at most 100 nM; in test [3], 100 to 1000 nM.

On to `O=C1C=C(c2ccc3c(c2)[nH]/c(=N\C(=O)c2cccc(C(F)(F)F)c2)n3CCCO)CO1` [Compound 9, (E)-N-(1-(3-hydroxypropyl)-5-(5-oxo-2,5-dihydrofuran-3-yl)-1H-benzo[d]imidazol-2(3H)-ylidene)-3-(trifluoromethyl)benzamide], for which the IC50 in test [2] is at most 100 nM; in test [3], 100 to 1000 nM.

With `CN1CCC(c2ccc3c(c2)[nH]/c(=N\C(=O)c2cccc(C(F)(F)F)c2)n3CCC(O)CO)C1=O` (single isomer, unassigned) [Compound 21d], the IC50 was 100 to 1000 nM in test [1], at most 100 nM in test [2] and at most 100 nM in test [3].

Turning to `CN1CCCC(c2ccc3c(c2)[nH]/c(=N\C(=O)c2cccc(C(F)F)c2)n3C[C@](C)(F)CO)C1=O` (stereo partly drawn) [Compound 2a, (E)-3-(difluoromethyl)-N-(1-((S)-2-fluoro-3-hydroxy-2-methylpropyl)-5-(1-methyl-2-oxopiperidin-3-yl)-1H-benzo[d]imidazol-2(3H)-ylidene)benzamide], the figures for the IC50 in test [2] and in test [3] were at most 100 nM and 100 to 1000 nM, respectively.

With `O=C(/N=c1\[nH]c2cc(C3(O)COC3)ccc2n1CCCO)c1cccc(C(F)(F)F)c1` [Compound 11, (E)-N-(5-(3-hydroxyoxetan-3-yl)-1-(3-hydroxypropyl)-1H-benzo[d]imidazol-2(3H)-ylidene)-3-(trifluoromethyl)benzamide], the half-inhibitory concentration (IC50) in test [2] is at most 100 nM; in test [3], 1000 to 10000 nM.

Regarding `Cc1ccn(C)c(=O)c1-c1ccc2c(c1)[nH]/c(=N\C(=O)c1cccc(C(F)(F)F)c1)n2CCCO` [Compound 6, (E)-N-(5-(1,4-dimethyl-2-oxo-1,2-dihydropyridin-3-yl)-1-(3-hydroxypropyl)-1H-benzo[d]imidazol-2(3H)-ylidene)-3-(trifluoromethyl)benzamide], the IC50 in test [2] was at most 100 nM; in test [3], 100 to 1000 nM.

As for `Cn1cccc(-c2ccc3c(c2)[nH]/c(=N\C(=O)c2cccc(C(F)(F)F)c2)n3CCCO)c1=O` [Compound 4, (E)-N-(1-(3-hydroxypropyl)-5-(1-methyl-2-oxo-1,2-dihydropyridin-3-yl)-1H-benzo[d]imidazol-2(3H)-ylidene)-3-(trifluoromethyl)benzamide], the IC50 in test [2] is at most 100 nM; in test [3], 100 to 1000 nM.

As for `O=C(/N=c1\[nH]c2cc(C3CCCCC3=O)ccc2n1CCCO)c1cccc(C(F)(F)F)c1` (stereo not drawn) [Compound 8, (E)-N-(1-(3-hydroxypropyl)-5-(2-oxocyclohexyl)-1H-benzo[d]imidazol-2(3H)-ylidene)-3-(trifluoromethyl)benzamide], the IC50 in test [2] and in test [3] was at most 100 nM each time.

Values taken from patent publication US9969710B2, “Heteroaryl compounds as IRAK inhibitors and uses thereof” (Merck Patent GmbH, priority 2015, dated 2018).
